From PubChem BioAssay AID256 (DTP/NCI, 2004)
Values joined by “and” are separate entries in the source; they are usually repeats but may differ in a detail not shown here. Equal values may be shown once. Inconclusive results and toxic doses are left out.

Test system: CD2F1 mice, L1210 leukemia ip, survival T/C
Experiment: NCI In Vivo Anticancer Drug Screen. Data for tumor model L1210 Leukemia (intraperitoneal) in CD2F1 (CDF1) mice
Conditions: endpoint: mean survival time, higher = longer survival
In short: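 Antitumor effect is scored in animals hosting a serially transplanted tumor. Values compare compound-dosed animals against vehicle-only controls as a simple quotient.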

[1] = dose: 100.0 mg/kg/injection, schedule: Q04DX003 (ip), vehicle: saline with Tween-80
[2] = dose: 200.0 mg/kg/injection, schedule: Q04DX003 (ip), vehicle: saline with Tween-80
[3] = dose: 400.0 mg/kg/injection, schedule: Q04DX003 (ip), vehicle: saline with Tween-80
[4] = dose: 100.0 mg/kg/injection, schedule: Q01DX009 (ip), vehicle: saline with Tween-80
[5] = dose: 200.0 mg/kg/injection, schedule: Q01DX009 (ip), vehicle: saline with Tween-80
[6] = dose: 400.0 mg/kg/injection, schedule: Q01DX009 (ip), vehicle: saline with Tween-80

With `c1ccc([P+](Cc2ccc(C[P+](c3ccccc3)(c3ccccc3)c3ccccc3)cc2)(c2ccccc2)c2ccccc2)cc1` the T/C (dose: 0.07 mg/kg/injection, schedule: Q01DX009 (ip), vehicle: saline sonified) was 94 % of control, the T/C (dose: 0.07 mg/kg/injection, schedule: Q04DX003 (ip), vehicle: saline with Tween-80) was 97 % of control and the T/C (dose: 0.15 mg/kg/injection, schedule: Q01DX009 (ip), vehicle: saline sonified) was 98 % of control. The T/C (dose: 0.15 mg/kg/injection, schedule: Q04DX003 (ip), vehicle: saline with Tween-80) was 93 % of control, the T/C (dose: 0.3 mg/kg/injection, schedule: Q01DX009 (ip), vehicle: saline sonified) was 93 % of control and the T/C (dose: 0.3 mg/kg/injection, schedule: Q04DX003 (ip), vehicle: saline with Tween-80) was 93 % of control. The T/C (dose: 0.6 mg/kg/injection, schedule: Q01DX009 (ip), vehicle: saline sonified) was 96 % of control and the T/C (dose: 0.6 mg/kg/injection, schedule: Q04DX003 (ip), vehicle: saline with Tween-80) was 98 % of control.

For `CC(=O)OCC1OC(n2cnc(N)nc2=O)C(OC(C)=O)C1OC(C)=O` (centres undefined), the T/C (dose: 1.56 mg/kg/injection, schedule: Q01DX009 (ip), vehicle: saline) was 121 % of control, the T/C (dose: 3.12 mg/kg/injection, schedule: Q01DX009 (ip), vehicle: saline) was 158 % of control and the T/C (dose: 6.25 mg/kg/injection, schedule: Q01DX009 (ip), vehicle: saline) was 161 % of control. For the same compound, the T/C (dose: 12.5 mg/kg/injection, schedule: Q01DX009 (ip), vehicle: saline) was 169 % of control and the T/C (dose: 25.0 mg/kg/injection, schedule: Q01DX009 (ip), vehicle: saline) was 110 % of control and 111 % of control.

For `N#CC(c1ccccc1)C1CCCCC1` (centres undefined), the T/C (dose: 75.0 mg/kg/injection, schedule: Q01DX009 (ip), vehicle: saline) was 95 % of control, the T/C (dose: 150.0 mg/kg/injection, schedule: Q01DX009 (ip), vehicle: saline) was 106 % of control and the T/C (dose: 300.0 mg/kg/injection, schedule: Q01DX009 (ip), vehicle: saline) was 108 % of control.

For `CCn1c(N)c2c(ncn2Cc2ccccc2)nc1=S`, the T/C (dose: 12.5 mg/kg/injection, schedule: Q01DX001 (ip), vehicle: acetone) was 100 % of control, the T/C (dose: 12.5 mg/kg/injection, schedule: Q04DX003 (ip), vehicle: saline with Tween-80) was 98 % of control and the T/C (dose: 25.0 mg/kg/injection, schedule: Q01DX001 (ip), vehicle: acetone) was 100 % of control. For the same compound, the T/C (dose: 25.0 mg/kg/injection, schedule: Q04DX003 (ip), vehicle: saline with Tween-80) was 98 % of control, the T/C (dose: 50.0 mg/kg/injection, schedule: Q01DX001 (ip), vehicle: acetone) was 103 % of control and the T/C (dose: 50.0 mg/kg/injection, schedule: Q04DX003 (ip), vehicle: saline with Tween-80) was 89 % of control.

In the case of `C=CCC(C)C(C)C` (centres undefined), the T/C (dose: 50.0 mg/kg/injection, schedule: Q01DX009 (ip), vehicle: saline) is reported as 96 % of control, the T/C (dose: 100.0 mg/kg/injection, schedule: Q01DX009 (ip), vehicle: saline) is reported as 100 % of control and the T/C (dose: 200.0 mg/kg/injection, schedule: Q01DX009 (ip), vehicle: saline) is reported as 100 % of control.

For `CC(=O)Nc1cccc(/C=C/C=C/c2cccc([N+](=O)[O-])c2)c1`, the T/C (dose: 100.0 mg/kg/injection, schedule: Q01DX001 (ip), vehicle: Klucel (hydroxypropylcellulose) (HPC)) was 103 % of control, the T/C (dose: 200.0 mg/kg/injection, schedule: Q01DX001 (ip), vehicle: Klucel (hydroxypropylcellulose) (HPC)) was 97 % of control and the T/C (dose: 400.0 mg/kg/injection, schedule: Q01DX001 (ip), vehicle: Klucel (hydroxypropylcellulose) (HPC)) was 90 % of control.

For `CCOC(=O)C(Cc1c[nH]c2ccccc12)(NC(C)=O)C(=O)OCC`, the T/C [1] was 98 % of control, the T/C [2] was 96 % of control and the T/C [3] was 104 % of control.

With `CCOC(=O)NS(=O)(=O)Nc1ccccc1` the T/C [4] was 104 % of control, the T/C [5] was 102 % of control and the T/C [6] was 96 % of control.

In the case of `CC(=O)Oc1cc(N=[N+]=[N-])c(OC(C)=O)cc1C`, the T/C (dose: 100.0 mg/kg/injection, schedule: Q01DX001 (ip), vehicle: saline with Tween-80) is reported as 97 % of control and the T/C (dose: 200.0 mg/kg/injection, schedule: Q01DX001 (ip), vehicle: saline with Tween-80) is reported as 93 % of control.

With `CCC1(O)CC2CN(CCc3c([nH]c4ccccc34)C(C(=O)OC)(c3cc4c(cc3OC)N(C)C3C(O)(C(N)=O)C(O)C5(CC)C=CCN6CCC43C65)C2)C1` (centres undefined) (tested in a mixture with another compound) the T/C (dose: 0.13 mg/kg/injection, schedule: Q01DX009 (ip), vehicle: water) was 121 % of control, the T/C (dose: 0.22 mg/kg/injection, schedule: Q01DX009 (ip), vehicle: water) was 123 % of control and the T/C (dose: 0.23 mg/kg/injection, schedule: Q04DX003 (ip), vehicle: water) was 121 % of control. For the same compound, the T/C (dose: 0.36 mg/kg/injection, schedule: Q01DX009 (ip), vehicle: water) was 122 % of control, the T/C (dose: 0.39 mg/kg/injection, schedule: Q04DX003 (ip), vehicle: water) was 124 % of control and the T/C (dose: 0.52 mg/kg/injection, schedule: Q04DX003 (ip), vehicle: water) was 106 % of control. The T/C (dose: 1.44 mg/kg/injection, schedule: Q04DX003 (ip), vehicle: water) was 112 % of control, the T/C (dose: 1.8 mg/kg/injection, schedule: Q04DX003 (ip), vehicle: water) was 164 % of control and the T/C (dose: 4.0 mg/kg/injection, schedule: Q04DX003 (ip), vehicle: water) was 104 % of control. The T/C (dose: 130.0 micrograms/kg/injection, schedule: Q01DX009 (ip), vehicle: water) was 102 % of control, the T/C (dose: 216.0 micrograms/kg/injection, schedule: Q01DX009 (ip), vehicle: water) was 107 % of control and the T/C (dose: 360.0 micrograms/kg/injection, schedule: Q01DX009 (ip), vehicle: water) was 113 % of control. For the same compound, the T/C (dose: 600.0 micrograms/kg/injection, schedule: Q01DX009 (ip), vehicle: water) was 120 % of control and the T/C (dose: 1000.0 micrograms/kg/injection, schedule: Q01DX009 (ip), vehicle: water) was 122 % of control.

For `Nc1nc(-c2ccccc2)c(Br)c(=O)[nH]1`, the T/C [1] was 104 % of control, the T/C [2] was 96 % of control and the T/C [3] was 93 % of control.

In the case of `COC(=O)CCC(=O)N(C)CCc1c[nH]c2ccccc12`, the T/C [4] is reported as 100 % of control, the T/C [1] is reported as 93 % of control and the T/C [5] is reported as 94 % of control. The T/C [2] was 93 % of control, the T/C [6] was 100 % of control and the T/C [3] was 98 % of control.

`CC(=O)Nc1ccccc1C(C)=O` was tested, and the T/C [4] was 110 % of control and the T/C [5] was 109 % of control.

For `C=CC/C=C/CCCCCC`, the T/C (dose: 50.0 mg/kg/injection, schedule: Q01DX009 (ip), vehicle: saline with Tween-80) was 114 % of control, the T/C [4] was 96 % of control and the T/C [5] was 107 % of control.

In the case of `COc1nn(O)cc2cc(C(=O)O)nc1-2`, the T/C (dose: 12.5 mg/kg/injection, schedule: Q04DX002 (ip), vehicle: saline with Tween-80) is reported as 104 % of control, the T/C (dose: 25.0 mg/kg/injection, schedule: Q04DX002 (ip), vehicle: saline with Tween-80) is reported as 104 % of control and the T/C (dose: 50.0 mg/kg/injection, schedule: Q04DX002 (ip), vehicle: saline with Tween-80) is reported as 101 % of control.

In the case of `CC(O)CNCCNC(=O)CNC(=O)C=[N+]=[N-]` (centres undefined), the T/C (dose: 200.0 mg/kg/injection, schedule: Q01DX009 (ip), vehicle: other) is reported as 108 % of control and the T/C (dose: 800.0 mg/kg/injection, schedule: Q01DX009 (ip), vehicle: other) is reported as 155 % of control.

For `COCCOC`, the T/C (dose: 200.0 mg/kg/injection, schedule: Q01DX Z (ip), vehicle: carboxymethylcellulose (CMC)) was 103 % of control, the T/C (dose: 300.0 mg/kg/injection, schedule: Q01DX Z (ip), vehicle: carboxymethylcellulose (CMC)) was 110 % of control and the T/C (dose: 450.0 mg/kg/injection, schedule: Q01DX Z (ip), vehicle: carboxymethylcellulose (CMC)) was 114 % of control. For the same compound, the T/C (dose: 675.0 mg/kg/injection, schedule: Q01DX Z (ip), vehicle: carboxymethylcellulose (CMC)) was 102 % of control.

With `Fc1ccc2c(c1)C(Br)c1ccccc1-2` (centres undefined) the T/C (dose: 6.25 mg/kg/injection, schedule: Q01DX009 (ip), vehicle: saline with Tween-80) was 96 % of control, the T/C (dose: 12.5 mg/kg/injection, schedule: Q01DX009 (ip), vehicle: saline with Tween-80) was 96 % of control and the T/C (dose: 25.0 mg/kg/injection, schedule: Q01DX009 (ip), vehicle: saline with Tween-80) was 105 % of control. For the same compound, the T/C [1] was 108 % of control, the T/C [2] was 88 % of control and the T/C [3] was 97 % of control.

`CC(C)OC(=O)Nc1ccc(F)cc1F` was tested, and the T/C [1] was 96 % of control, the T/C [2] was 102 % of control and the T/C [3] was 98 % of control.

With `NC(CCl)=NCc1ccccn1` the T/C (dose: 25.0 mg/kg/injection, schedule: Q04DX002 (ip), vehicle: saline) was 108 % of control, the T/C (dose: 50.0 mg/kg/injection, schedule: Q04DX002 (ip), vehicle: saline) was 97 % of control and the T/C (dose: 100.0 mg/kg/injection, schedule: Q04DX002 (ip), vehicle: saline) was 101 % of control.

`COc1cc2c(cc1OC)C(CCN)=NCC2` was tested, and the T/C (dose: 25.0 mg/kg/injection, schedule: Q01DX009 (ip), vehicle: saline sonified) was 98 % of control, the T/C (dose: 50.0 mg/kg/injection, schedule: Q01DX009 (ip), vehicle: saline sonified) was 98 % of control and the T/C (dose: 100.0 mg/kg/injection, schedule: Q01DX009 (ip), vehicle: saline sonified) was 93 % of control. For the same compound, the T/C (dose: 100.0 mg/kg/injection, schedule: Q04DX003 (ip), vehicle: saline) was 97 % of control.
